Experimental data as given in ChEMBL document CHEMBL1687702, “Discovery of New Human A(2A) Adenosine Receptor Agonists: Design, Synthesis, and Binding Mode of Truncated 2-Hexynyl-4'-thioadenosine” (ACS Med Chem Lett, 2010).

Legend:
Adenosine receptor A2a [1] = molecular target: T1, Adenosine receptor A2a (Homo sapiens, UniProt P29274); assay: Displacement of [3H]CGS21680 from human adenosine A2A receptor in HEK293 cells at 10 uM; assay type: cell-based
[2] = molecular target: T2, Adenosine receptor A1 (Homo sapiens) (UniProt P30542); assay: Displacement of [3H]CCPA from human adenosine A1 receptor expressed in CHO cells at 10 uM; assay type: cell-based
T2 sequence (whole entry): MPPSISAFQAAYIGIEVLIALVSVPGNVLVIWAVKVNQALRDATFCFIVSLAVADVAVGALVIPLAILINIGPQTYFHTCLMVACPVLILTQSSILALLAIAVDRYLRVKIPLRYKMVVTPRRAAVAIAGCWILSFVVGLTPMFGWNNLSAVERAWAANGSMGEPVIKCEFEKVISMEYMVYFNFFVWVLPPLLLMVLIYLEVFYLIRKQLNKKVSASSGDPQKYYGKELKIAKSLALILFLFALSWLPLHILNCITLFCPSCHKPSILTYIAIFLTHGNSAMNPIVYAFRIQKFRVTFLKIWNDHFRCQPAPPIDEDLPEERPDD

Adenosine receptor A3 = molecular target: T3, Adenosine receptor A3 (Homo sapiens, UniProt P0DMS8); assay: Displacement of [125I]I-AB-MECA from human adenosine A3 receptor expressed in CHO cells […]; assay type: cell-based
T3 sequence (P0DMS8 whole entry): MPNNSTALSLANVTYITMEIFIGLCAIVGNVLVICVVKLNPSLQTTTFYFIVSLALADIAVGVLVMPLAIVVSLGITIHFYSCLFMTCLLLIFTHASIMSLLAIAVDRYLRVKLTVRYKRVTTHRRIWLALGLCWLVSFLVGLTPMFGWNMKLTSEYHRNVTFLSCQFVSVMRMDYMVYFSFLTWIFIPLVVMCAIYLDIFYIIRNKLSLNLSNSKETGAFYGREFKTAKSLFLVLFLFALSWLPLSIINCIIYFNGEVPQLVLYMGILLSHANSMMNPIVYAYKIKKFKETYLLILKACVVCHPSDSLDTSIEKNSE

Adenosine receptor A2a [3] = molecular target: T1, Adenosine receptor A2a; assay: Displacement of [3H]CGS21680 from human adenosine A2A receptor in HEK293 cells; assay type: cell-based
Adenosine receptor A2b = molecular target: T4, Adenosine receptor A2b (Homo sapiens, UniProt P29275); assay: Agonist activity at human adenosine A2B receptor expressed in CHO cells by cyclic AMP functional assay; assay type: cell-based
T4 sequence (P29275 whole entry): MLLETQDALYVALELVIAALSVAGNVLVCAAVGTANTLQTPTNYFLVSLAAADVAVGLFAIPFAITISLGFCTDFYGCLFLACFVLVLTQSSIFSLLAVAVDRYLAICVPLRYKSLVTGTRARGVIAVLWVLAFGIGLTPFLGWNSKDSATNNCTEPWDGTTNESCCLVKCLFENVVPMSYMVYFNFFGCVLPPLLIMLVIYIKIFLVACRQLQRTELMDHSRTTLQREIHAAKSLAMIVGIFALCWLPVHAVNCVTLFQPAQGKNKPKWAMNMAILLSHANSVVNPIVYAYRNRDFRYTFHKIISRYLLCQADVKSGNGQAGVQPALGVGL

[4] = molecular target: T5, Adenosine receptor A3 (Homo sapiens) (UniProt P0DMS8); assay: Antagonistic activity at human adenosine A3 receptor expressed in CHO cells assessed as inhibition of Cl-IB-MECA mediated cyclic AMP production by Schild assay; assay type: functional, cell-based
T5 sequence (whole entry): T3 sequence (P0DMS8 whole entry)

Adenosine receptor A2a [5] = molecular target: T1, Adenosine receptor A2a; assay: Agonist activity at human adenosine A2A receptor expressed in CHO cells by cyclic AMP functional assay; assay type: cell-based

T1 sequence (P29274 whole entry): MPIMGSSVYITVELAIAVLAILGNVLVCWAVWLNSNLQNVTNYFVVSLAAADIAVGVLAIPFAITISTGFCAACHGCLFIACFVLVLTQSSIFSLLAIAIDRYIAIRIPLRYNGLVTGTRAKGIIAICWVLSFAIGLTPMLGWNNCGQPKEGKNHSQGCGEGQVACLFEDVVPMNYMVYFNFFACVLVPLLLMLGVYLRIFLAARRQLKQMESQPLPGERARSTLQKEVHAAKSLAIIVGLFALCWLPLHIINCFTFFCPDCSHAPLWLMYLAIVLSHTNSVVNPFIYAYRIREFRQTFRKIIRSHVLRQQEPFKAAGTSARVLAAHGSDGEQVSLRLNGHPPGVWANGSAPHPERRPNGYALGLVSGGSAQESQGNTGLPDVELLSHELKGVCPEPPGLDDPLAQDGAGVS

SMILES | inhibition (Adenosine receptor A2a [1]) [%] | inhibition [2] [%] | Ki (Adenosine receptor A3) [nM] | Ki (Adenosine receptor A2a [3]) [nM] | EC50 (Adenosine receptor A2b) [nM] | Kb [4] [nM] | EC50 (Adenosine receptor A2a [5]) [nM]
CCCC/C=C/c1nc2c(N)ncnc2n1[C@@H]1SC[C@@H](O)[C@H]1O | 22.8 | 3.7 | 259 | – | – | – | –
CCCCC#Cc1nc2c(N)ncnc2n1[C@@H]1SC[C@@H](O)[C@H]1O | 46.5 | 49.3 | 20 | – | – | – | –
CCCC/C=C/c1nc(N)c2ncn([C@@H]3SC[C@@H](O)[C@H]3O)c2n1 | 95.9 | 16.2 | 13.2 | 72 | – | – | –
CCCCC#Cc1nc(N)c2ncn([C@@H]3SC[C@@H](O)[C@H]3O)c2n1 | 97.2 | 38.9 | – | – | 10000 | 1.69 | 12
